# Laboratory results taken from patent US20230279002A1, “Polymorphs of Crystalline Forms of 3,10-dimethoxy-5,8,13,13a-tetrahydro-6H-isoquinolino[3,2-a]isoquinolin-9-yl 3-fluorobenzenesulfonate and Salts Thereof” (CVI Pharmaceuticals Limited, priority 2020, published 2023).
# How the values were obtained:
# Format in all cases: physicochemical
# [1] = DVS (Dynamic Vapor Sorption) moisture sorption/desorption, hygroscopicity classification; settings: 25 °C; for Change In Mass (%) - ref, Desorption / Change In Mass (%) - ref, Sorption / Change In Mass (%) - ref, Hysteresis: Cycle 1
# Procedure: DVS (Dynamic Vapor Sorption): Around 10-20 mg of samples were used to test its moisture sorption/desorption profiles at 25° C. under 0%˜95%˜0% relative humidity (RH) cycle using dm/dt: 0.01%/min equilibrium and a measurement step of 5% RH.
# Hygroscopicity Classification: Typical %-moisture gain as a function of increased RH was determined by DVS. Samples went through a dynamic test isothermally at 25° C. The test was divided into 2 processes, one was absorption process, the other was desorption process. RH ranged from 0% to 95% with 5% RH for each step, and when dm/dt<=0.01%, it was assumed the water sorption/desorption equilibrium is reached.
# [2] = Solid stability at 40° C./0% RH (closed) and 40° C./75% RH (open), HPLC; settings: for 0 day % remaining / 5 day % remaining / 10 day % remaining: solid
# Procedure: (§1) Solid stability: 5 mg of 2a was weighed into scintillation vials sealed properly and stored at 40° C./0% RH(closed), 40° C./75% RH(open) under dark conditions to avoid the effect of light on stability. Samples were collected at day 0, 5 and 10 and analyzed by HPLC.
# Solid stability: 5 mg of compound was weighed into vials sealed properly and stored at 40° C./0% RH (closed), 40° C./75% RH (open) under dark conditions to avoid the effect of light. Samples were analyzed by HPLC at days 0, 7, and 21.
# as §1, with “stability of compound 1a:” for “stability:”, “compound were accurately” for “of 2a was”, “condition” for “conditions”, “should be” for “were”, “10 days” for “10”
# [3] = Solution stability in 0.1 N HCl, pH 4.5 buffer and pH 6.8 buffer at 25° C. and 37° C., HPLC; settings: summary of the Examples
# Procedure: Solution stability: A stock solution of compound (1.0 mg/mL) in MeOH was diluted with 0.1 N HCl, pH 4.5 buffer (acetate) and pH 6.8 buffer to reach constant ionic strength of 0.15 M and the same final concentration (50 μg/mL, 40% MeOH).
# A stock solution of 1b and 3b (1.0 mg/mL) in MeOH was diluted with pH 6.8 buffer to reach constant ionic strength of 0.15M and the same final concentration (25 μg/mL, 40% […]).
# The solutions were stored at 25° C. and 37° C.
# [4] = TGA (Thermal Gravimetric Analysis) weight loss; settings: for TGA weight loss (in words): room temperature to 120° C.
# Procedure: TGA (Thermal Gravimetric Analysis): Samples of compounds (4˜6 mg) were weighed into the pan, and heated under nitrogen purge using a ramp rate of 20° C./min over the range of 30° C.˜350° C.
smiles,measurement,setting,value
COc1ccc2c(c1)CCN1Cc3c(ccc(OC)c3OS(=O)(=O)c3cccc(F)c3)C[C@H]21 [Compound 2a],Hygroscopicity classification by DVS,[1],non-hygroscopic
same,"Change In Mass (%) - ref, Desorption",[1]; Target RH 0.0 %,−0.00505%
same,"Change In Mass (%) - ref, Sorption",[1]; Target RH 0.0 %,0.00011%
same,"Change In Mass (%) - ref, Desorption",[1]; Target RH 5.0 %,−0.0028%
same,"Change In Mass (%) - ref, Hysteresis",[1]; Target RH 5.0 %,−0.00426%
same,"Change In Mass (%) - ref, Sorption",[1]; Target RH 5.0 %,0.00146%
same,"Change In Mass (%) - ref, Desorption",[1]; Target RH 10.0 %,−0.00101%
same,"Change In Mass (%) - ref, Hysteresis",[1]; Target RH 10.0 %,−0.0046%
same,"Change In Mass (%) - ref, Sorption",[1]; Target RH 10.0 %,0.00359%
same,"Change In Mass (%) - ref, Desorption",[1]; Target RH 15.0 %,0.00000%
same,"Change In Mass (%) - ref, Hysteresis",[1]; Target RH 15.0 %,−0.00527%
same,"Change In Mass (%) - ref, Sorption",[1]; Target RH 15.0 %,0.00527%
same,"Change In Mass (%) - ref, Desorption",[1]; Target RH 20.0 %,0.00123%
same,"Change In Mass (%) - ref, Hysteresis",[1]; Target RH 20.0 %,−0.0055%
same,"Change In Mass (%) - ref, Sorption",[1]; Target RH 20.0 %,0.00673%
same,"Change In Mass (%) - ref, Desorption",[1]; Target RH 25.0 %,0.00247%
same,"Change In Mass (%) - ref, Hysteresis",[1]; Target RH 25.0 %,−0.00505%
same,"Change In Mass (%) - ref, Sorption",[1]; Target RH 25.0 %,0.00752%
same,"Change In Mass (%) - ref, Desorption",[1]; Target RH 30.0 %,0.00292%
same,"Change In Mass (%) - ref, Hysteresis",[1]; Target RH 30.0 %,−0.00527%
same,"Change In Mass (%) - ref, Sorption",[1]; Target RH 30.0 %,0.00819%
same,"Change In Mass (%) - ref, Desorption",[1]; Target RH 35.0 %,0.00393%
same,"Change In Mass (%) - ref, Hysteresis",[1]; Target RH 35.0 %,−0.00449%
same,"Change In Mass (%) - ref, Sorption",[1]; Target RH 35.0 %,0.00841%
same,"Change In Mass (%) - ref, Desorption",[1]; Target RH 40.0 %,0.0055%
same,"Change In Mass (%) - ref, Hysteresis",[1]; Target RH 40.0 %,−0.00314%
same,"Change In Mass (%) - ref, Sorption",[1]; Target RH 40.0 %,0.00864%
same,"Change In Mass (%) - ref, Desorption",[1]; Target RH 45.0 %,0.00673%
same,"Change In Mass (%) - ref, Hysteresis",[1]; Target RH 45.0 %,−0.00202%
same,"Change In Mass (%) - ref, Sorption",[1]; Target RH 45.0 %,0.00875%
same,"Change In Mass (%) - ref, Desorption",[1]; Target RH 50.0 %,0.00763%
same,"Change In Mass (%) - ref, Hysteresis",[1]; Target RH 50.0 %,−0.00191%
same,"Change In Mass (%) - ref, Sorption",[1]; Target RH 50.0 %,0.00954%
same,"Change In Mass (%) - ref, Desorption",[1]; Target RH 55.0 %,0.00853%
same,"Change In Mass (%) - ref, Hysteresis",[1]; Target RH 55.0 %,−0.00123%
same,"Change In Mass (%) - ref, Sorption",[1]; Target RH 55.0 %,0.00976%
same,"Change In Mass (%) - ref, Desorption",[1]; Target RH 60.0 %,0.00909%
same,"Change In Mass (%) - ref, Hysteresis",[1]; Target RH 60.0 %,−0.0009%
same,"Change In Mass (%) - ref, Sorption",[1]; Target RH 60.0 %,0.00998%
same,"Change In Mass (%) - ref, Desorption",[1]; Target RH 65.0 %,0.00954%
same,"Change In Mass (%) - ref, Hysteresis",[1]; Target RH 65.0 %,−0.00056%
same,"Change In Mass (%) - ref, Sorption",[1]; Target RH 65.0 %,0.0101%
same,"Change In Mass (%) - ref, Desorption",[1]; Target RH 70.0 %,0.01066%
same,"Change In Mass (%) - ref, Hysteresis",[1]; Target RH 70.0 %,0.00000%
same,"Change In Mass (%) - ref, Sorption",[1]; Target RH 70.0 %,0.01066%
same,"Change In Mass (%) - ref, Desorption",[1]; Target RH 75.0 %,0.01234%
same,"Change In Mass (%) - ref, Hysteresis",[1]; Target RH 75.0 %,0.00056%
same,"Change In Mass (%) - ref, Sorption",[1]; Target RH 75.0 %,0.01178%
same,"Change In Mass (%) - ref, Desorption",[1]; Target RH 80.0 %,0.01324%
same,"Change In Mass (%) - ref, Hysteresis",[1]; Target RH 80.0 %,0.00034%
same,"Change In Mass (%) - ref, Sorption",[1]; Target RH 80.0 %,0.0129%
same,"Change In Mass (%) - ref, Desorption",[1]; Target RH 85.0 %,0.01481%
same,"Change In Mass (%) - ref, Hysteresis",[1]; Target RH 85.0 %,0.0009%
same,"Change In Mass (%) - ref, Sorption",[1]; Target RH 85.0 %,0.01391%
same,"Change In Mass (%) - ref, Desorption",[1]; Target RH 90.0 %,0.01773%
same,"Change In Mass (%) - ref, Hysteresis",[1]; Target RH 90.0 %,0.00146%
same,"Change In Mass (%) - ref, Sorption",[1]; Target RH 90.0 %,0.01627%
same,"Change In Mass (%) - ref, Desorption",[1]; Target RH 95.0 %,0.02076%
same,"Change In Mass (%) - ref, Sorption",[1]; Target RH 95.0 %,0.02076%
same,moisture picked up (DVS),[1]; at 95% RH,about 0.02%
same,Solid-state stability (HPLC),"[2]; 40° C./0% RH (closed) and 40° C./75% RH (open), dark, up to 10 days",substantially stable
same,0 day % remaining,"[2]; 40° C. (0% RH, closed)",99.65%
same,5 day % remaining,"[2]; 40° C. (0% RH, closed)",101.65%
same,10 day % remaining,"[2]; 40° C. (0% RH, closed)",100.85%
same,0 day % remaining,[2]; 40° C./75% RH (open),99.65%
same,5 day % remaining,[2]; 40° C./75% RH (open),100.66%
same,10 day % remaining,[2]; 40° C./75% RH (open),101.31%
same,Stability compared with other polymorphs (summary),[3],most stable of the polymorphs
same,Temperature until which there is no weight loss,[4]; DSC and TGA,about 150 °C
same,TGA weight loss (in words),[4],almost no weight loss
same,TGA weight loss (in words),[4]; listed as Hydrochloride salt of compound 1a,almost no weight loss
